Laboratory results reported in ChEMBL document CHEMBL1201862, “PubChem BioAssay data set” (2004).
Active and inactive are the calls of the source.

Assays:
[1] = system: INS1; assay: INS-1E survival protection against cytokine death – cell-based, luminescence, retest, dose response (AID 449756); assay type: functional; details: Rattus norvegicus, INS1;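 note: cell death triggered by IL-1 beta plus TNF-alpha plus IFN-gamma mixture; protective hits raise ATP signal compared with cytokine alone wells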
[2] = THP-1 cell cytotoxicity, dose response, cytotoxicity control for non-replicating M. tuberculosis project (AID 489025); assay type: functional
[3] = HepG2 cell cytotoxicity, dose response, cytotoxicity control for non-replicating M. tuberculosis project (AID 489018); assay type: functional; details: Mycobacterium tuberculosis
[4] = Trypanosoma cruzi growth suppression in host cells – NIH3T3 host cells, beta-gal luminescence, confirmation (AID 2044); assay type: functional, cell-based;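 note: intracellular parasites grown in NIH/3T3 mouse fibroblasts as host cells; luminescent beta-galactosidase reporter signal from transgenic T. cruzi replicating inside host cells; inhibitors lower the luminescence signal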
[5] = cells; assay type: functional
[6] = biological target: T1, Microphthalmia-associated transcription factor (Homo sapiens, UniProt O75030); assay: reducers of TRPM1 reporter luminescence, concentration series – cell-based, SK-MEL-5, cherry-picked, set 3, MITF inhibitor project, dose response (AID 493073); assay type: functional;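 note: SK-MEL-5 melanoma cells with luciferase driven by the MITF target TRPM1 promoter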
T1 sequence (O75030 whole entry): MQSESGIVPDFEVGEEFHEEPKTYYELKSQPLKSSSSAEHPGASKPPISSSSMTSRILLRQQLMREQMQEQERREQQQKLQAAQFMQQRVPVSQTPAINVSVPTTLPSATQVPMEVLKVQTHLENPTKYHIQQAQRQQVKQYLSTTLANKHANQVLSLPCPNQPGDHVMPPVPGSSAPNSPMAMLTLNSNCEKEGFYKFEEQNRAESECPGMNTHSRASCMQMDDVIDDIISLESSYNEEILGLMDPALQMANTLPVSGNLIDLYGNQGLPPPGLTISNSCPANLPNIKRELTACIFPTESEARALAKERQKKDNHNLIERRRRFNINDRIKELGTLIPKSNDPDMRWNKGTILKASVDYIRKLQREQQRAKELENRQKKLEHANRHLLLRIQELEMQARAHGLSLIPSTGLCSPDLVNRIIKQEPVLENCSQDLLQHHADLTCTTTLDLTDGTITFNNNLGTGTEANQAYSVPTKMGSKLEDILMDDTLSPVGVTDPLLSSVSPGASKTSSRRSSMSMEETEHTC

[7] = NIH3T3 cell viability loss – ATP luminescence, mouse fibroblasts, counter-screen, dose response (AID 2010); assay type: functional, cell-based;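 note: cells exposed to compound for about 90 hours before reading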
[8] = viability of HCT116 lacking mutant beta-catenin – cell-based, human colon tumor, dose response (AID 1045); assay type: functional;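 note: HCT116 colon tumor cells with beta catenin knocked out; cells exposed to compound for 60 hours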
[9] = Luminescence Cell-Based Dose Retest to Confirm Inhibitors of Cancer Stem Cells. [Related pubchem assays (depositor defined):AID2717, AID2721]; assay type: functional; details: Homo sapiens
[10] = system: A-375; assay: MITF: Counter assay: A375 proliferation Measured in Cell-Based System Using Plate Reader - 2084-03_Inhibitor_Dose_DryPowder_Activity. [Related pubchem assays (depositor defined):AID488944]; assay type: functional; details: Homo sapiens
[11] = Vero E6 cell cytotoxicity, dose response, cytotoxicity control for non-replicating M. tuberculosis project, secondary assay (AID 492998); assay type: functional, VeroE6; details: Vero C1008
[12] = viability of PTEN-deleted HCT116 cells – cell-based, HCT116 PTEN knockout, dose response (AID 1047); assay type: functional;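 note: HCT116 colon tumor cells with PTEN knocked out; cells exposed to compound for 60 hours before readout; potency for loss of cell viability measured by luminescence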
[13] = M. tuberculosis H37Rv growth inhibitors, H37Rv strain (AID 1626); assay type: functional
[14] = biological target: Type-1 angiotensin II receptor (Homo sapiens, UniProt P30556); assay: antagonism of angiotensin II type 1 receptor – cell-based, uHTS hits, selectivity assay for APJ receptor antagonist project, dose response (AID 463214); assay type: functional;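 note: antagonist potency against angiotensin II stimulated AT1 response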
[15] = biological target: Beta-galactosidase (Escherichia coli, UniProt Q8VNN2); assay: PubChem AID 485352; assay type: functional
[16] = system: A-375; assay: proliferation inhibition in MITF-low A375 cells – cell-based, cherry-pick samples, set 2, counter-screen for MITF modulator project, dose response (AID 540335); assay type: functional; details: Homo sapiens
[17] = biological target: T2, Ubiquitin-conjugating enzyme E2 N (Homo sapiens, UniProt P61088); assay type: functional;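 note: Dose-response confirmation in a TR-FRET assay detecting UBC13-driven polyubiquitin chain formation, inhibition measured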
T2 sequence (P61088 whole entry): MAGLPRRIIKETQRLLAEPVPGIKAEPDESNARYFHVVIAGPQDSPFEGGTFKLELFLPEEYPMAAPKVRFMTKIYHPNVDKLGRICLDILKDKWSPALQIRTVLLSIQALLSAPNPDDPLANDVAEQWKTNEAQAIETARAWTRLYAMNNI

[18] = viability loss in HepG2 hepatoma cells – cell-based, ATP luminescence, cherry-pick, activator set 2, cytotoxicity control, dose response (AID 1053143); assay type: functional
[19] = biological target: T3, Heat shock factor protein 1 (Mus musculus, UniProt P38532); assay: enhancement of HSF1-driven luciferase signal – cell-based, NIH3T3, luminescence, dose retest, confirmation (AID 435004); assay type: functional;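 note: stress induced by proteasome inhibitor MG132 added 30 min after compound; luciferase reporter driven by HSF1 response element in NIH3T3 cells; actives raise luminescence as potentiators of the MG132 stress response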
T3 sequence (P38532 whole entry): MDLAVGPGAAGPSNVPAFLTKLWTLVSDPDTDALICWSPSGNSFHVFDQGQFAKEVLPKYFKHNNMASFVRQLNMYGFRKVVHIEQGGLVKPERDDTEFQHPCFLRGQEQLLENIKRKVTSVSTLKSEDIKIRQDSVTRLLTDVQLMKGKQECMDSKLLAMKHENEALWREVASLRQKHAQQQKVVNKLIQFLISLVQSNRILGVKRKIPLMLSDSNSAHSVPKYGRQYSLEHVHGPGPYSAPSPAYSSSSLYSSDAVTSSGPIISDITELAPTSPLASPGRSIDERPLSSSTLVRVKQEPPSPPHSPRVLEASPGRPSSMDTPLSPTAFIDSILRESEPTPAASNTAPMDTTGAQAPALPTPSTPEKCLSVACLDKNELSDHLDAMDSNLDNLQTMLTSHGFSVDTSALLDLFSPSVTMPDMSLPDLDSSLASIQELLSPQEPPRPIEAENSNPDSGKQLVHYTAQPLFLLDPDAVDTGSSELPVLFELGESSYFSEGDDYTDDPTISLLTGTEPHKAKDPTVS

[20] = biological target: T4, Hexokinase-1 (Homo sapiens, UniProt P19367); assay: SAR analysis of small molecule inhibitors of hexokinase domain containing I (HKDC1) in the hexokinase 1 selectivity assay. [Related pubchem assays (depositor defined):AID493160, AID493190]; assay type: functional
T4 sequence (P19367 whole entry): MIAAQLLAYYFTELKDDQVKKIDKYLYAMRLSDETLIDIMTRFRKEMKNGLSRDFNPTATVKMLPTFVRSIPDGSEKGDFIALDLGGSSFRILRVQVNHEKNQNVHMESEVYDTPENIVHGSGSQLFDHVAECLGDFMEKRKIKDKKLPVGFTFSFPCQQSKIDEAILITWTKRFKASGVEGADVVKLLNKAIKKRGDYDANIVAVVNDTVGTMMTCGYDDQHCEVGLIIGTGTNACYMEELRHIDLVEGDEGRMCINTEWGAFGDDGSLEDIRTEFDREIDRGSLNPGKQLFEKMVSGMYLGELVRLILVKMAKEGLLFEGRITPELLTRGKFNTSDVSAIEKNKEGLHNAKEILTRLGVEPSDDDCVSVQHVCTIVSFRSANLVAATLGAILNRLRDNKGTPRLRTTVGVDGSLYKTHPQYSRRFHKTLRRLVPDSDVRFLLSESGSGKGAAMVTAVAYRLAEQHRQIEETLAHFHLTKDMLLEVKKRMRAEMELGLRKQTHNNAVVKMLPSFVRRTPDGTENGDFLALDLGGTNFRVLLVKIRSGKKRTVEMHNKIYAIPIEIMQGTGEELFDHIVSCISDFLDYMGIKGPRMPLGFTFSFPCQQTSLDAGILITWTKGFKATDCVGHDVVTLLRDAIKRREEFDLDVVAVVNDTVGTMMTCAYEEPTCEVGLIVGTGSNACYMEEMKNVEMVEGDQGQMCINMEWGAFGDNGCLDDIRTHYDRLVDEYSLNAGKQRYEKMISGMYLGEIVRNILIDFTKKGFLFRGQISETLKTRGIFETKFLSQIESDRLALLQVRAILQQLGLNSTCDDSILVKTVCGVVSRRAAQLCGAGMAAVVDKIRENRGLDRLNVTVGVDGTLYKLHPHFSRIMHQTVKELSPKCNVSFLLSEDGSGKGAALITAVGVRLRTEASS

[21] = biological target: T5, Hexokinase HKDC1 (Homo sapiens, UniProt Q2TB90); assay: SAR analysis of small molecule inhibitors of hexokinase domain containing I (HKDC1). [Related pubchem assays (depositor defined):AID493160, AID493190]; assay type: functional
T5 sequence (Q2TB90 whole entry): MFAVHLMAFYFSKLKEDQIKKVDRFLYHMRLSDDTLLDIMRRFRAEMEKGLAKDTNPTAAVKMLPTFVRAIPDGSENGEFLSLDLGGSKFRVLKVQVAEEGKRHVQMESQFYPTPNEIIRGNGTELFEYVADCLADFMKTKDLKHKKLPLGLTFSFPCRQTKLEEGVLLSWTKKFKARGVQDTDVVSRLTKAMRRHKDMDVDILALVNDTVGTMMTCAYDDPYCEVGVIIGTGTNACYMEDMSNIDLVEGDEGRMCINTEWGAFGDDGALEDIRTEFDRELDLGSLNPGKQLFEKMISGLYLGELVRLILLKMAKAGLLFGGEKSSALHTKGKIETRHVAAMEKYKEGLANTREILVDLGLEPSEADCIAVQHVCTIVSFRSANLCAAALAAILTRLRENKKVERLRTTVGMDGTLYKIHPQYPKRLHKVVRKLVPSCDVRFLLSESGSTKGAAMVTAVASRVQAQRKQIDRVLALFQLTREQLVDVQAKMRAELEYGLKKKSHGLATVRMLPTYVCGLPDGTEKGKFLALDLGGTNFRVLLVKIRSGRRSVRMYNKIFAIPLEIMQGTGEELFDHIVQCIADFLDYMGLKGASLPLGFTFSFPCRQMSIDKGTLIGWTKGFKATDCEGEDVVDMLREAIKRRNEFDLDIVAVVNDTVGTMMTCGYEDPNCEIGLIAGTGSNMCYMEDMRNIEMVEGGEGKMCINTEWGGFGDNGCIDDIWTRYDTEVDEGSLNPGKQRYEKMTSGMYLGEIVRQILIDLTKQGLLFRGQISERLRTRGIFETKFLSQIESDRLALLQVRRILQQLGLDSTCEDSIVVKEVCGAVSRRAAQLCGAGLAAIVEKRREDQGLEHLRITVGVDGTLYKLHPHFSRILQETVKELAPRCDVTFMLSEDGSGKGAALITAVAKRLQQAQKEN

Beta-galactosidase, sequence (Q8VNN2 whole entry): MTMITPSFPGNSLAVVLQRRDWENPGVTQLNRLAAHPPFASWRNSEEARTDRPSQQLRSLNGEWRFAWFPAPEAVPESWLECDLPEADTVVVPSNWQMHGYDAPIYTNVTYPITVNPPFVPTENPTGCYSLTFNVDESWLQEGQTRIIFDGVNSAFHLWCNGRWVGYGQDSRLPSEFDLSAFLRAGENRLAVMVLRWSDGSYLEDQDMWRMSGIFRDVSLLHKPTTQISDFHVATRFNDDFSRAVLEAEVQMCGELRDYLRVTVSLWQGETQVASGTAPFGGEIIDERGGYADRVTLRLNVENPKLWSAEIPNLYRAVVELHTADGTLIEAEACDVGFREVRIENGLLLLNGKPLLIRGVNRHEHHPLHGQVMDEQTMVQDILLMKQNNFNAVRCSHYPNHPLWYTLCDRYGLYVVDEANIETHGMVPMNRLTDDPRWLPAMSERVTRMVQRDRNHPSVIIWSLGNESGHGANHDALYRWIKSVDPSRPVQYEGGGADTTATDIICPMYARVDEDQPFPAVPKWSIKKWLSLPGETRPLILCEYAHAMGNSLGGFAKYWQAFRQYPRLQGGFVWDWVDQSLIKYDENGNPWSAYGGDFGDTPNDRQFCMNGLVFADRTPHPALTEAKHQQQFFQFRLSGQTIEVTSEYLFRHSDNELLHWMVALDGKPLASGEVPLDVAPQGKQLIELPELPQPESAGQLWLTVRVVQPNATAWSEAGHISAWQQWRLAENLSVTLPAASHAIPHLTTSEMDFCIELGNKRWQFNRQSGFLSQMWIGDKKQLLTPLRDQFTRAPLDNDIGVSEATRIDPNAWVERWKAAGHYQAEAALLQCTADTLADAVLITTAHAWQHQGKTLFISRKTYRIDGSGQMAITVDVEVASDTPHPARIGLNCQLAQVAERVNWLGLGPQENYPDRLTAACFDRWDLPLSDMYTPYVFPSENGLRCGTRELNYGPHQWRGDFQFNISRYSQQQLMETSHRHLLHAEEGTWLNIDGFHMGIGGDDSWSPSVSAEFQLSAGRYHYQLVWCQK
Type-1 angiotensin II receptor, sequence (P30556 whole entry): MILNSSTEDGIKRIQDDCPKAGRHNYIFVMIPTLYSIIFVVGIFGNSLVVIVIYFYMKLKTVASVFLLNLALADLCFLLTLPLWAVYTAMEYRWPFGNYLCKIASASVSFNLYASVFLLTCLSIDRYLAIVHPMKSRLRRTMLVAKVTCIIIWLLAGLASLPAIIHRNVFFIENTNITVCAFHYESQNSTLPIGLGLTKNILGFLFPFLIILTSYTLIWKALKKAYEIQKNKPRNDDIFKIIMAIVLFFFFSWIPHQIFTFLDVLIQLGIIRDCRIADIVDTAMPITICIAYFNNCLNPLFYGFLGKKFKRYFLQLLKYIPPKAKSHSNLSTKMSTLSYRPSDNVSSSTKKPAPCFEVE

## COc1cc(CNC2CCCC2)cc(Cl)c1OCc1ccccc1Cl
[1]
  AC50: 7.36 µM (active)
[2]
  CC50: 18.3 µM (active)
[3]
  CC50: 19.1 µM (active)
[4]
  EC50: 1.17 µM (active)
[5]
  IC50: 16.8 µM (active)
[6]
  AC50: 17.7 µM (active)
[7]
  EC50: 13.8 µM (active)
[8]
  EC50: 12.1 µM (active)
[9]
  AC50: 5.89 µM (active)
[10]
  AC50: 17.5 µM (active)
[11]
  CC50: > 20 µM (active)
[12]
  EC50: 14.6 µM (active)

## Cc1ccc(C(=O)CNc2ccc(C)c(Cl)c2)cc1
[13]
  IC50: > 100 µM (active)
[14]
  IC50: 5.43 µM (active)
[15]
  EC50: > 40 µM (inactive)

## COc1ccc(C[C@H]2CN3C(=NC[C@@H]3C(C)C)N2CCNC(=O)c2ccc(C)c(Br)c2)cc1
[16]
  AC50: 34.3 µM (active)
[17]
  IC50: > 20 µM (inactive)

## C#Cc1cccc(NC(=O)CSc2nnc(-c3ccc(C(F)(F)F)cn3)o2)c1
[16]
  AC50: > 11 µM (active)
[10]
  AC50: > 11 µM (active)

## CCOc1cccc(/C=C/c2ccc3cccc(O)c3n2)c1OC
[4]
  EC50: 2.48 µM (active)
[7]
  EC50: 4.48 µM (active)
[14]
  IC50: 16.6 µM (active)
[15]
  EC50: > 40 µM (inactive)
[18]
  AC50: 26 µM (active)
[19]
  EC50: 27.7 µM (active)

## Cc1ccc(C(=O)Nc2nnc(SCc3ccc(C#N)cc3)s2)cc1
[20]
  IC50: > 80 µM (inactive)
[21]
  IC50: > 80 µM (inactive)

## O=c1c2ccccc2nc(/C=C/c2ccc(Br)cc2)n1Cc1ccccc1
[20]
  IC50: > 80 µM (inactive)
[21]
  IC50: > 80 µM (inactive)
